We go through two compounds from patent publication US5229409A, “6-substituted-tetrahydrobenz[cd]indoles” (Eli Lilly and Company, priority 1991, dated 1993).

One assay relates to serotonin. Description: whole brain serotonin concentration in vivo in rats. To be noted: 1 hour, series 0.03-3 mg/kg. Details: species or system rat (male albino). The method, then:
(§1) In another experiment certain compounds of the Examples were evaluated to determine ability to affect the 5-hydroxyindoles serotonin and 5-hydroxyindole acetic acid (5HIAA), and serum corticosterone, in vivo. Male albino rats were injected subcutaneously with an aqueous solution of the compound. The pH of the solution was adjusted as necessary to solubilize the compound. A control of the solution without the test compound was similarly injected into a control animal. The rats were decapitated one hour later. Trunk blood was collected and allowed to clot. After centrifugation, serum was stored frozen prior to analysis. The whole brain was removed and frozen on dry ice for storage prior to analysis. The serum corticosterone concentration was measured spectrofluorometrically using the procedure of Solem and Brinck-Johnson, "An Evaluation of a Method for Determination of Free Corticosteroids in Minute Quantities of Mouse Plasma", Scand. J. Clin. Lab. Invest., Suppl. 80, p. 1-14 (1965), incorporated herein by reference. 5-Hydroxyindoleacetic acid (5HIAA) concentration in whole brain was measured by liquid chromatography with electrochemical detection as reported by Fuller and Perry, "Effects of Buspirone and its Metabolite, 1-(2-pyrimidinyl)piperazine, on Brain Monoamines and Their Metabolites in Rats", J. Pharmacol. Exp. Ther., 248, p. 50-56 (1989), incorporated herein by reference.

For another assay, the system named is serum corticosterone. Description: serum corticosterone concentration in vivo in rats. Details: species or system rat (male albino). To be noted: 1 hour, series 0.03-3 mg/kg. The method, then:
as §1

Another assay deals with T1, 5-HT1A receptor (Rattus norvegicus, UniProt P19327).
T1 construct: the brains were rapidly chilled and dissected to obtain the hippocampi; from tissue; host or cells: hippocampi of male Sprague-Dawley rats (150-250 g), washed membranes
T1 sequence (P19327 1-422): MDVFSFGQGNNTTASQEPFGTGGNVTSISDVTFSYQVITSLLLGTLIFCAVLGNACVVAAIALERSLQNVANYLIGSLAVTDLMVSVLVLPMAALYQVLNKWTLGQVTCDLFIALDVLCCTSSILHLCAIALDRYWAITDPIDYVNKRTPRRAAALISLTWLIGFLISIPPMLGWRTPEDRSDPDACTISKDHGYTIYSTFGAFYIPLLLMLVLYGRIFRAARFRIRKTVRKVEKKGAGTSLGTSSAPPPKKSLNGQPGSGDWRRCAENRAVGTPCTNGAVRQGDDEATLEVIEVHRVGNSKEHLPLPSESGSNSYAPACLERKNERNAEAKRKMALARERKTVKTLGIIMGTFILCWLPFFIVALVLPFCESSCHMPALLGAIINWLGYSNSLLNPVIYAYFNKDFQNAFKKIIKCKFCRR
Description: [3H]8-OH-DPAT binding to 5-HT1A sites in hippocampal membranes. Further details: species or system rat (male Sprague-Dawley). The following applies: [3H]8-OH-DPAT 1.0 nM, pH 7.4, 37° C. How it is done:
The affinities of the compounds at the central […] described by Taylor, et al., (J. Pharmacol. Exp. Ther. 236:118-125, 1986). Membranes for the binding assay were prepared from male Sprague-Dawley rats (150-250 g). The animals were killed by decapitation, and the brains were rapidly chilled and dissected to obtain the hippocampi. The hippocampi were either prepared that day or stored frozen (-70° C.) until the day of preparation. Membranes were prepared by homogenizing the tissue in 40 volumes of ice-cold Tris-HCl buffer (50 mM, pH 7.4 at 22° C.) using a Techmar Tissumizer (setting 65 for 15 sec), and the homogenate was centrifuged at 39800 xg for 10 min. The resulting pellet then resuspended in the same buffer, and the centrifugation and resuspension process was repeated three additional times to wash the membranes. Between the second and third washes the resuspended membranes were incubated for 10 min at 37° C. to facilitate the removal of endogenous ligands. The final pellet was resuspended in 67 mM Tris-HCl, pH 7.4, to a concentration of 2 mg of tissue original wet weight/200 μl. This homogenate was stored frozen (-70° C.) until the day of the binding assay. […] The assay tubes were incubated for 10 min at 37° C, and the contents were then rapidly filtered through GF/B filters (pretreated with 0.5% polyethylenimine), followed by four one-mL washes with ice cold buffer. The radioactivity trapped by the filters was quantitated by liquid scintillation spectrometry, and specific [^3 H]8-OH-DPAT binding to the 5-HT1A sites was defined as the difference between [^3 H]8-OH-DPAT bound in the presence and absence of 10 μM 5-HT.
The affinity of the particular compound at the 5-HT1A receptor is expressed as IC50 value, i.e., the concentration required to inhibit 50% of the binding. The IC50 values were determined from 12-point competition curves using nonlinear regression (SYSTAT, SYSTAT, INC., Evanston, Ill.).

A further assay concerns the target T2, 5-HT1D receptor (Bos taurus, UniProt F1MGM3).
T2 construct: the caudate nuclei were dissected out and frozen at -70° C; tissue Pel-Freeze Biologicals; host or cells: bovine caudate nuclei, washed membranes
The experiment in a line: [3H]5-HT binding to 5-HT1D sites in caudate nuclei membranes. To be noted: bovine caudate membranes, [3H]5-HT 1.7-1.9 nM, pH 7.4, 37° C. How it is done: The affinities of the compounds at the central 5-HT1D binding sites were determined using a modification of the binding assay described by Heuring and Peroutka (J. Neurosci. 7:894-903, 1987). Bovine brains were obtained from Pel-Freeze Biologicals, and the caudate nuclei were dissected out and frozen at -70° C. until the time that the membranes were prepared for the binding assays. At that time the tissues were homogenized in 40 volumes of ice-cold Tris-HCl buffer (50 mM, pH 7.4 at 22° C.) with a Techmar Tissumizer (setting 65 for 15 sec), and the homogenate was centrifuged at 39,800 g for 10 min. The resulting pellet was then resuspended in the same buffer, and the centrifugation and resuspension process was repeated three additional times to wash the membranes. Between the second and third washes the resuspended membranes were incubated for 10 min at 37° C. to facilitate the removal of endogenous 5-HT. the final pellet was resuspended in Tris buffer to a concentration of 25 mg of original tissue wet weight/ml for use in the binding assay. […] The assay tubes were incubated for 10 min at 37° C., and the contents were then rapidly filtered through GF/B filters (pretreated with 0.5% polyethylenimine), followed by four one-mL washes with ice-cold buffer. The radioactivity trapped by the filters was quantitated by liquid scintillation spectrometry, and specific [^3 H]5-HT binding to the 5HT1D sites were defined as the difference between [^3 H]5-HT bound in the presence and absence of 10 μM 5-HT.
The affinities of compounds at the 5-HT1D receptor are expressed as IC50 values, i.e., the concentration required to inhibit 50% of the binding. These values were determined from 12-point competition curves using nonlinear regression (SYSTAT, SYSTAT, Inc. Evanston, Ill.).

In assay [1] the test system is 5-hydroxyindole acetic acid (5HIAA). Description: whole brain 5-hydroxyindoleacetic acid (5HIAA) concentration in vivo in rats. Details: species or system rat (male albino). The following applies: 1 hour, series 0.03-3 mg/kg. The method, then: as §1, with “The rats were decapitated one hour later.” left out

T2 sequence (F1MGM3 1-403): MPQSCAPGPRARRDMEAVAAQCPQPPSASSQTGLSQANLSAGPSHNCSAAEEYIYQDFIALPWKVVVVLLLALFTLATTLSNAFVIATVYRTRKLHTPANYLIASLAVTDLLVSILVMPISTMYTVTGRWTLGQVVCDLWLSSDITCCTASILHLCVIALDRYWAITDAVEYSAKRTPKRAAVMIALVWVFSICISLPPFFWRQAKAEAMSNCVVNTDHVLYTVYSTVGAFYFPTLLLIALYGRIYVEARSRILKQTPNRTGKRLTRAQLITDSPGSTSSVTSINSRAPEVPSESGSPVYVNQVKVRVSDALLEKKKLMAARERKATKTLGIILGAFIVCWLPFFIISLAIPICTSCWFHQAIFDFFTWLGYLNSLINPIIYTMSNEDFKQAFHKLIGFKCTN

Consider `CCCN(CCC)C1Cc2c[nH]c3ccc(C(=O)C(C)(C)C)c(c23)C1` (racemic) [Example 1, (±)-6-(2,2-Dimethylpropanoyl)-4-(di-n-propylamino)-1,3,4,5-tetrahydrobenz[cd]indole], for which the Serotonin in the assay on serotonin (0.03 mg/kg s.c.) turned out to be 3.15 ± 0.13 nmol/g; with serotonin (0.3 mg/kg s.c.), 3.45 ± 0.10 nmol/g; with serotonin (3 mg/kg s.c.), 3.38 ± 0.08 nmol/g. Besides, the “Serum Corticosterone” value with serum corticosterone (0.03 mg/kg s.c.) came out at 8.2 ± 3.2 microg./100 ml; in the assay with serum corticosterone (0.3 mg/kg s.c.) it was 36.0 ± 4.8 microg./100 ml; in the assay with serum corticosterone (3 mg/kg s.c.) it was 44.2 ± 1.5 microg./100 ml. For the same compound, the IC50 at 5-HT1A receptor was determined as 0.5 nM; on 5-HT1D receptor, 2.01 nM. The 5HIAA in assay [1] (0.03 mg/kg s.c.) turned out to be 1.58 ± 0.05 nmol/g; in assay [1] (0.3 mg/kg s.c.) it was 1.31 ± 0.03 nmol/g; in assay [1] (3 mg/kg s.c.), 1.23 ± 0.04 nmol/g.

In the case of `CCCN(CCC)[C@H]1Cc2c[nH]c3ccc(C(=O)c4ccccc4)c(c23)C1` [Example 10, (4R)-(+)-6-benzoyl-4-(di-n-propylamino)-1,3,4,5-tetrahydrobenz[cd]indole], the IC50 came to 0.22 nM on 5-HT1A receptor and 1.81 nM at 5-HT1D receptor.
